This series is described as follows: Henry solubility constant Hcp at 298.15 K (mol/(m3 Pa)).
Setting [1] is: reference: Dohnal and Fenclová (1995).
Where [2] appears, read: reference: Feigenbrugel et al. (2004b).
Where [3] appears, read: reference: Parsons et al. (1972).
Where [4] appears, read: reference: Copolovici and Niinemets (2005).
Where [5] appears, read: reference: Shunthirasingham et al. (2013).
Where [6] appears, read: reference: Amoore and Buttery (1978).
Where [7] appears, read: reference: Butler et al. (1935).
[8] abbreviates: reference: Murphy et al. (1983a).
Setting [9] is: reference: Cetin and Odabasi (2005).
Setting [10] is: reference: Charles and Destaillats (2005).
The mark [11] stands for this setting: reference: Rochester and Symonds (1973).

Take `Cc1ccccc1O` [1-hydroxy-2-methylbenzene]: the “Henry solubility constant Hcp” value was 5.6 under setting [1], 4.2 under setting [2], 11 (reference: Harrison et al. (2002)) and 8.2 under setting [3].
With `Cc1cc(C)cc(O)c1` [1-hydroxy-3,5-dimethylbenzene], the “Henry solubility constant Hcp” value under setting [1] came to 16.
As for `Cc1cccc(O)c1` [1-hydroxy-3-methylbenzene], the “Henry solubility constant Hcp” value stood at 12 under setting [1] and 7.9 under setting [2].
On to `Cc1ccc(O)cc1` [1-hydroxy-4-methylbenzene], for which the “Henry solubility constant Hcp” value runs as follows: under setting [1], 13; under setting [2], 10; under setting [3], 13.
Turning to `CC1=CC=C(C(C)C)CC1` [1-methyl-4-(1-methylethyl)-1,3-cyclohexadiene], the “Henry solubility constant Hcp” value came out at 0.00029 under setting [4] and 0.00038 (reference: Schuhfried et al. (2015)).
In the case of `CC1=CCC(=C(C)C)CC1` [1-methyl-4-(1-methylethylidene)-cyclohexene], the “Henry solubility constant Hcp” value under setting [4] turned out to be 0.00038.
Turning to `Cc1cccc2ccccc12` [1-methylnaphthalene], the “Henry solubility constant Hcp” value (reference: Schwarz and Wasik (1977)) was 0.028.
As for `CCC[N+](=O)[O-]` [1-nitropropane], the “Henry solubility constant Hcp” value (reference: Beneš and Dohnal (1999)) was determined as 0.13.
As for `CCCCCCCCO` [1-octanol], the “Henry solubility constant Hcp” value turned out to be 0.19 (reference: Lei et al. (2007)), 0.21 under setting [5] and 0.17 (reference: Wu et al. (2022a)).
Take `C=CC(O)CCCCC` (centres undefined) [1-octen-3-ol]: the “Henry solubility constant Hcp” value was 0.25 (reference: Druaux et al. (1998)); 0.13 (reference: Roberts and Pollien (1997)); 0.19 (reference: Wu et al. (2022a)).
In the case of `C1COCCN1` [1-oxa-4-azacyclohexane], the “Henry solubility constant Hcp” value (reference: Nguyen (2013)) is 190.
For `CCCCCN` [1-pentanamine], the “Henry solubility constant Hcp” value reads like this: under setting [6], 0.31; (reference: Christie and Crisp (1967)) 0.4.
As to `CCCCCO` [1-pentanol], the “Henry solubility constant Hcp” value under setting [7] amounted to 0.78, the “Henry solubility constant Hcp” value (reference: Gupta et al. (2000)) is 0.95, the “Henry solubility constant Hcp” value (reference: Lei et al. (2007)) worked out at 0.75 and the “Henry solubility constant Hcp” value under setting [5] was determined as 0.81.
Regarding `CCCCCO[N+](=O)[O-]` [1-pentyl nitrate], the “Henry solubility constant Hcp” value (reference: Hauff et al. (1998)) came to 0.0066.
Turning to `CC(=O)c1ccccc1` [1-phenylethanone], the “Henry solubility constant Hcp” value is 0.97 (reference: Allen et al. (1998)) and 1.1 (reference: Betterton (1991)).
On to `CCCS` [1-propanethiol], for which the “Henry solubility constant Hcp” value runs as follows: (reference: Coquelet and Richon (2005)) 0.0017; (reference: Haimi et al. (2006)) 0.0018.
Take `CCCO` [1-propanol]: the “Henry solubility constant Hcp” value is, setting by setting: (reference: Burnett (1963)) 1.6; under setting [7], 1.4; (reference: Gupta et al. (2000)) 1.2; (reference: Richon et al. (1985)) 1.8; (reference: Snider and Dawson (1985)) 1.3; (reference: Straver and de Loos (2005)) 1.5. Further, under “reference: Vitenberg and Dobryakov (2008)”, the “Henry solubility constant Hcp” value amounted to 1.5.
For `C1=NCCC1` [1-pyrroline], under setting [6], the “Henry solubility constant Hcp” value was found to be 1.6.
As for `OCCC(F)(F)C(F)(F)C(F)(F)C(F)(F)C(F)(F)C(F)(F)F` [1H,1H,2H,2H-perfluoro-1-octanol], the “Henry solubility constant Hcp” value by setting is: (reference: Goss et al. (2006)) 0.0015; (reference: Lei et al. (2004)) 8.5e-05; (reference: Wu and Chang (2011)) 0.00017.
Regarding `OCCC(F)(F)C(F)(F)C(F)(F)C(F)(F)C(F)(F)C(F)(F)C(F)(F)C(F)(F)F` [1H,1H,2H,2H-perfluorodecan-1-ol], the “Henry solubility constant Hcp” value was found to be 0.00017 (reference: Lei et al. (2004)); 0.0002 (reference: Wu and Chang (2011)).
Turning to `OCCC(F)(F)C(F)(F)C(F)(F)C(F)(F)F` [1H,1H,2H,2H-perfluorohexan-1-ol], the “Henry solubility constant Hcp” value worked out at 0.013 (reference: Goss et al. (2006)); 6.1e-05 (reference: Lei et al. (2004)); 0.0066 (reference: Wu and Chang (2011)).
For the compound `Clc1ccc(-c2c(Cl)c(Cl)cc(Cl)c2Cl)c(Cl)c1Cl` [2,2',3,3',4,5',6'-heptachlorobiphenyl], the “Henry solubility constant Hcp” value under setting [8] amounted to 0.0045.
Take `Clc1cccc(-c2ccc(Cl)c(Cl)c2Cl)c1Cl` [2,2',3,3',4-pentachlorobiphenyl]: the “Henry solubility constant Hcp” value under setting [8] worked out at 0.049.
Regarding `Clc1cc(Cl)c(-c2c(Cl)ccc(Cl)c2Cl)cc1Cl` [2,2',3,4',5',6-hexachlorobiphenyl], the “Henry solubility constant Hcp” value under setting [8] turned out to be 0.033.
With `Clc1cc(Cl)c(-c2c(Cl)cc(Cl)c(Cl)c2Cl)cc1Cl` [2,2',3,4,4',5',6-heptachlorobiphenyl], under setting [8], the “Henry solubility constant Hcp” value was found to be 0.016.
Regarding `Clc1ccc(-c2cc(Cl)c(Cl)c(Cl)c2Cl)c(Cl)c1` [2,2',3,4,4',5-hexachlorobiphenyl], the “Henry solubility constant Hcp” value under setting [8] was determined as 0.021.
Turning to `Clc1ccc(Cl)c(-c2c(Cl)cc(Cl)c(Cl)c2Cl)c1` [2,2',3,4,5',6-hexachlorobiphenyl], the “Henry solubility constant Hcp” value under setting [8] amounted to 0.016.
The same measure, in the same setting: then `Clc1ccc(Cl)c(-c2cc(Cl)c(Cl)c(Cl)c2Cl)c1` [2,2',3,4,5,5'-hexachlorobiphenyl], with 0.025.
As for `Clc1ccc(Cl)c(-c2cccc(Cl)c2Cl)c1` [2,2',3,5'-tetrachlorobiphenyl], the “Henry solubility constant Hcp” value under setting [8] was 0.041.
Turning to `Brc1cc(Br)c(Oc2cc(Br)c(Br)cc2Br)cc1Br` [2,2',4,4',5,5'-hexabromodiphenyl ether], the “Henry solubility constant Hcp” value was determined as 3.5 under setting [9] and 3.7 (reference: Long et al. (2017)).
As to `Clc1cc(Cl)c(-c2cc(Cl)c(Cl)cc2Cl)cc1Cl` [2,2',4,4',5,5'-hexachlorobiphenyl], under setting [8], the “Henry solubility constant Hcp” value worked out at 0.028.
Consider `Brc1cc(Br)c(Oc2cc(Br)c(Br)cc2Br)c(Br)c1` [2,2',4,4',5,6'-hexabromodiphenyl ether], for which the “Henry solubility constant Hcp” value by setting is: under setting [9], 7.3; (reference: Long et al. (2017)) 7.1.
For the compound `Brc1ccc(Oc2cc(Br)c(Br)cc2Br)c(Br)c1` [2,2',4,4',5-pentabromodiphenyl ether], the “Henry solubility constant Hcp” value is 1.5 under setting [9], 0.27 under setting [10] and 1.5 (reference: Long et al. (2017)).
Turning to `Clc1ccc(-c2cc(Cl)c(Cl)cc2Cl)c(Cl)c1` [2,2',4,4',5-pentachlorobiphenyl], under setting [10], the “Henry solubility constant Hcp” value amounted to 0.0088.
Consider `Brc1ccc(Oc2c(Br)cc(Br)cc2Br)c(Br)c1` [2,2',4,4',6-pentabromodiphenyl ether], for which the “Henry solubility constant Hcp” value under setting [9] was found to be 3.8, the “Henry solubility constant Hcp” value under setting [10] was 0.19 and the “Henry solubility constant Hcp” value (reference: Long et al. (2017)) amounted to 3.6.
In the case of `Brc1ccc(Oc2ccc(Br)cc2Br)c(Br)c1` [2,2',4,4'-tetrabromodiphenyl ether], the “Henry solubility constant Hcp” value under setting [9] is 0.87, the “Henry solubility constant Hcp” value under setting [10] is 0.17 and the “Henry solubility constant Hcp” value (reference: Long et al. (2017)) was found to be 0.91.
Regarding `Clc1ccc(-c2cc(Cl)ccc2Cl)c(Cl)c1` [2,2',4,5'-tetrachlorobiphenyl], under setting [8], the “Henry solubility constant Hcp” value was determined as 0.049.
As for `Clc1ccc(Cl)c(-c2cc(Cl)ccc2Cl)c1` [2,2',5,5'-tetrachlorobiphenyl], under setting [8], the “Henry solubility constant Hcp” value came out at 0.045.
Same read-out and setting: then `Clc1ccc(Cl)c(-c2ccccc2Cl)c1` [2,2',5-trichlorobiphenyl], with 0.049; and `Clc1ccccc1-c1c(Cl)cccc1Cl` [2,2',6-trichlorobiphenyl], with 0.047.
Turning to `Clc1ccccc1-c1ccccc1Cl` [2,2'-dichlorobiphenyl], under setting [8], the “Henry solubility constant Hcp” value is 0.045.
Take `OCC(F)(F)F` [2,2,2-trifluoroethanol]: the “Henry solubility constant Hcp” value (reference: Chen et al. (2003)) is 0.47 and the “Henry solubility constant Hcp” value under setting [11] was found to be 0.58.
With `CC(=O)OCC(F)(F)F` [2,2,2-trifluoroethyl ethanoate], the “Henry solubility constant Hcp” value (reference: Kutsuna et al. (2004)) worked out at 0.0057.
As to `O=COCC(F)(F)F` [2,2,2-trifluoroethyl methanoate], where the note is “reference: Kutsuna et al. (2005)”, the “Henry solubility constant Hcp” value turned out to be 0.0054.
As for `OCC(F)(F)C(F)(F)F` [2,2,3,3,3-pentafluoro-1-propanol], the “Henry solubility constant Hcp” value runs as follows: (reference: Chen et al. (2003)) 0.14; under setting [11], 0.45.
In the same order, the values of `OCC(F)(F)C(F)F` [2,2,3,3-tetrafluoro-1-propanol] are 1.4 and 1.6.
For `FC(F)(F)C(Cl)Cl` [2,2-dichloro-1,1,1-trifluoroethane], the “Henry solubility constant Hcp” value by setting is: (reference: Chang and Criddle (1995)) 0.00032; (reference: Kutsuna (2013)) 0.00023.
As to `CC(C)(Cl)Cl` [2,2-dichloropropane], for the setting “reference: Bakierowska and Trzeszczyński (2003)”, the “Henry solubility constant Hcp” value came out at 0.00081.
With `Clc1ccc(-c2ccccc2Cl)cc1Cl` [2,3',4'-trichlorobiphenyl], the “Henry solubility constant Hcp” value is 0.066 under setting [8] and 0.025 (reference: Westcott et al. (1981)).
Consider `Clc1ccc(-c2cc(Cl)c(Cl)cc2Cl)cc1Cl` [2,3',4,4',5-pentachlorobiphenyl], for which the “Henry solubility constant Hcp” value was found to be 0.018 under setting [10] and 0.025 under setting [8].
On to `Clc1cccc(-c2ccc(Cl)cc2Cl)c1` [2,3',4-trichlorobiphenyl], for which, under setting [8], the “Henry solubility constant Hcp” value turned out to be 0.062.
`Clc1cccc(-c2ccccc2Cl)c1` [2,3'-dichlorobiphenyl]: the “Henry solubility constant Hcp” value under setting [8] came to 0.047.
